# “Also recorded” adds a separate entry of the source.
# Columns and labels:
# Format in all cases: in vivo, rat
# P rats = assay: Lickometer alcohol preference in alcohol-naïve P rats pre-treated with 10 daily oxytocin injections (Example 2)
# Experimental: P rats (8 female and 6 male P rats) of adult age (i.e., 150 days) were used in this study. Animals were maintained as described in example 1, however they received no alcohol prior to testing.
# One-half of the rats (n=4 female and n=3 male) were given 10 injections of 1 mg/kg oxytocin (a single I/P injection per day for a total of 10 days). The other half of the rats received equivalent injections of placebo/vehicle lacking oxytocin. Two weeks later, the alcohol preferences of both sets of alcohol-naïve animals were tested. The same alcohol and alcohol-free solutions were employed as in example 1, and testing conditions were in the same lickometer apparatus. Testing in the lickometer (1×70 min session per day) continued for a total of 10 days during which time intake of sucrose and Vodka Cruiser were measured.
# Male Wistar rats [1] = assay: Emergence test of anxiety after oxytocin pre-treatment (Example 3)
# Experimental: (§1) Male Wistar rats (n=48) were obtained from the Animal Resource Centre (ARC), Perth, Western Australia, Australia. The animals were of early adolescent age (i.e., 21 days-old) on arrival and were young adults (i.e., 33 days-old) when oxytocin therapy commenced. The animals were housed and maintained as described in the preceding examples, except that animals were moved to individual housing during chronic exposure to alcohol.
# (§2) One-half of the rats (n=24) were administered 10 injections of 1 mg/kg oxytocin (1×I/P injection per day for a total of 10 days). The other half of the rats (n=24) received equivalent injections of placebo/vehicle lacking oxytocin.
# (§3) At 7 days following final injection of oxytocin, all rats were tested in an emergence test of anxiety. This 5 min test measures the willingness of rats to leave a small dark hide box and emerge into a brightly lit open field. Rats normally avoid brightly lit and open spaces. Three days later, the animals were tested in social interaction tests which measure the willingness of rats to engage in social behavior during a 10 min session in a darkened arena where they meet an unknown rat that has received the same drug treatment.
# Male Wistar rats [2] = assay: Social interaction test after oxytocin pre-treatment (Example 3)
# Experimental: as §1, §2, §3
# Male Wistar rats [3] = assay: Home-cage free access to 4.5% ethanol beer after oxytocin prophylaxis (Example 3, FIGS. 5-7)
# Experimental: as §1, §2
# A subset of the treated rats (n=8 per condition) were exposed to alcohol in the lickometer apparatus over a 10 day period. On the first day of testing, animals were exposed to a 70 min session in the lickometer during which a low-alcohol near-beer was provided at both lick tubes (Birell's Premium, containing 0.5% alcohol). On subsequent days, animals were exposed to further 70 min test sessions during which near-beer supplemented with increasing amounts of absolute ethanol were provided at both lick tubes i.e., to produce a beer comprising 1.5%, 2.5%, 3.5% and finally 4.5% ethanol. The concentration of ethanol was then maintained at 4.5% for all subsequent testing.
# After 9 days of lickometer testing, the rats were given free access to 4.5% ethanol containing beer for a 24-day period in their home cages. Standard rat chow and tap water were also available in the home cages. Alcohol intakes and body weights were measured daily.
# [4] = 10 x 1 mg/kg I/P, tested 7 days after final injection, versus vehicle
# [5] = 10 minute social interaction test, versus vehicle
# [6] = FIG. 6 panel A, start of exposure
structure (smiles),measurement,setting,value
CC[C@H](C)[C@@H]1NC(=O)[C@H](Cc2ccc(O)cc2)NC(=O)[C@@H](N)CSSC[C@@H](C(=O)N2CCC[C@H]2C(=O)N[C@@H](CC(C)C)C(=O)NCC(N)=O)NC(=O)[C@H](CC(N)=O)NC(=O)[C@H](CCC(N)=O)NC1=O [oxytocin],alcohol intake and preference for alcohol,"P rats; alcohol-naïve P rats, both sexes, repeated doses",reduced alcohol intake and preference for alcohol; also recorded: reduced significantly
same,preference for Vodka Cruiser versus 3% sucrose solution,"P rats; male alcohol-naïve P rats, 10 x 1 mg/kg/day, final 4 days of testing",significantly reduced preference for Cruiser over sucrose
same,intake of sucrose,P rats; male oxytocin-treated rats relative to both female groups,higher
same,intake of Cruiser (alcohol),P rats; male oxytocin-treated rats versus the other groups,less intake of alcohol; also recorded: lower
same,"reduced acquisition of alcohol preference, comparison between the sexes",P rats; males compared to females,greater in males compared to females
same,emergence from hide into brightly-lit open field,Male Wistar rats [1]; [4],greater likelihood of emergence into the open field; also recorded: emerged more rapidly
same,time hiding,Male Wistar rats [1]; [4],reduced time hiding; also recorded: significantly less time hiding
same,anxiety,Male Wistar rats [1]; relative to control rats,reduced anxiety
same,number of social contacts,Male Wistar rats [2]; [5],significantly higher numbers of social contacts; also recorded: increased numbers of social contacts
same,proximal time (time within one and half body lengths of another rat),Male Wistar rats [2]; [5],significantly higher; also recorded: increased time spent in close proximity
same,social anxiety,Male Wistar rats [2]; test animals after oxytocin therapy,decreased social anxiety
same,average daily intake of full strength beer,"Male Wistar rats [3]; FIG. 5, final oxytocin injection about 30 days before exposure to alcohol, versus placebo",significantly reduced alcohol consumption; also recorded: consistently less alcohol intake
same,consumption of water,"Male Wistar rats [3]; FIG. 6, same period",did not significantly modify consumption of water; also recorded: unchanged
same,escalation of alcohol consumption / alcohol intake,"Male Wistar rats [3]; FIG. 6, 10 daily IP injections ending about 21 days before 24 days beer exposure, versus saline vehicle",significantly reduced an escalation of alcohol consumption; also recorded: consistently less alcohol intake
same,ethanol consumption after marginal increase,"Male Wistar rats [3]; FIG. 6 panel A, over 24 days",10-10.8 g/kg of pure ethanol per day
same,initial beer consumption,Male Wistar rats [3]; [6],about 110 ml of beer per day
same,initial ethanol consumption,Male Wistar rats [3]; [6],about 9 g/kg of pure ethanol per day
same,reduction of initial alcohol consumption,"Male Wistar rats [3]; FIG. 6 panel A, versus animals without oxytocin",about 10%
same,total consumption of full strength beer,"Male Wistar rats [3]; FIG. 7 panel A, final week of the experiment, versus saline vehicle",significantly reduced later consumption of alcohol
same,total water consumption,"Male Wistar rats [3]; FIG. 7 panel B, final week",no significant difference in total water consumption
same,alcohol consumed with free access to full strength beer in home cages,"Male Wistar rats [3]; FIGS. 5-7, versus placebo",consumed consistently less alcohol
same,body weight and food intake,"Male Wistar rats [3]; oxytocin pre-treated rats versus controls, FIG. 5 experiment",same body weight and food intake as controls
same,general health,"Male Wistar rats [3]; oxytocin pre-treated rats, FIG. 5 experiment",appeared healthy

# Source: patent US9119805B2, “Therapy and prevention of problem drinking” (THE UNIVERSITY OF SYDNEY, priority 2009, dated 2015)
